Measurements taken from PubChem BioAssay (NCI).
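Following 48 hours of exposure in 96-well plates, responses at five concentrations were used to interpolate endpoints linearly. Definition used: TGI = concentration required for complete inhibition of growth.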

Key:
Experiment in all cases: growth of human tumour cells (NCI), 48 h
A549 NSCLC = test system: A549 NSCLC
ACHN renal = test system: ACHN renal
BT-549 breast = test system: BT-549 breast
CAKI-1 renal = test system: CAKI-1 renal
CCRF-CEM leukemia = test system: CCRF-CEM leukemia
COLO 205 colon = test system: COLO 205 colon
DU-145 prostate = test system: DU-145 prostate
EKVX NSCLC = test system: EKVX NSCLC
HCT-116 colon = test system: HCT-116 colon
HCT-15 colon = test system: HCT-15 colon
HL-60(TB) leukemia = test system: HL-60(TB) leukemia
HOP-62 NSCLC = test system: HOP-62 NSCLC
HOP-92 NSCLC = test system: HOP-92 NSCLC
HS 578T breast = test system: HS 578T breast
HT29 colon = test system: HT29 colon
IGROV1 ovarian = test system: IGROV1 ovarian
K-562 leukemia = test system: K-562 leukemia
KM12 colon = test system: KM12 colon
LOX IMVI melanoma = test system: LOX IMVI melanoma
M14 melanoma = test system: M14 melanoma
MALME-3M melanoma = test system: MALME-3M melanoma
MCF7 breast = test system: MCF7 breast
MDA-MB-231 breast = test system: MDA-MB-231 breast
MDA-MB-435 = test system: MDA-MB-435
MDA-N = test system: MDA-N
MOLT-4 leukemia = test system: MOLT-4 leukemia
NCI-H226 lung = test system: NCI-H226 lung
NCI-H23 lung = test system: NCI-H23 lung
NCI-H460 lung = test system: NCI-H460 lung
NCI-H522 lung = test system: NCI-H522 lung
NCI/ADR-RES ovarian = test system: NCI/ADR-RES ovarian
OVCAR-3 ovarian = test system: OVCAR-3 ovarian
OVCAR-4 ovarian = test system: OVCAR-4 ovarian
OVCAR-5 ovarian = test system: OVCAR-5 ovarian
OVCAR-8 ovarian = test system: OVCAR-8 ovarian
PC-3 prostate = test system: PC-3 prostate
RPMI-8226 leukemia = test system: RPMI-8226 leukemia
RXF 393 renal = test system: RXF 393 renal
SF-268 CNS = test system: SF-268 CNS
SF-295 CNS = test system: SF-295 CNS
SF-539 CNS = test system: SF-539 CNS
SK-MEL-2 melanoma = test system: SK-MEL-2 melanoma
SK-MEL-28 melanoma = test system: SK-MEL-28 melanoma
SK-MEL-5 melanoma = test system: SK-MEL-5 melanoma
SK-OV-3 ovarian = test system: SK-OV-3 ovarian
SN12C renal = test system: SN12C renal
SNB-19 CNS = test system: SNB-19 CNS
SNB-75 CNS = test system: SNB-75 CNS
SW-620 colon = test system: SW-620 colon
T-47D breast = test system: T-47D breast
TK-10 renal = test system: TK-10 renal
U251 CNS = test system: U251 CNS
UACC-257 melanoma = test system: UACC-257 melanoma
UACC-62 melanoma = test system: UACC-62 melanoma
UO-31 renal = test system: UO-31 renal
786-0 renal = test system: 786-0 renal
A498 renal = test system: A498 renal
HCC-2998 colon = test system: HCC-2998 colon

Structure (SMILES): O=C1/C(=C/c2ccc(Cl)cc2)N=C(c2ccccc2)N1/N=C/c1ccccc1O
- TGI (A549 NSCLC): 81.6 µM
- TGI (ACHN renal): 21.2 µM
- TGI (BT-549 breast): 39.6 µM
- TGI (CAKI-1 renal): 22.3 µM
- TGI (CCRF-CEM leukemia): 7.73 µM
- TGI (COLO 205 colon): > 100 µM
- TGI (DU-145 prostate): > 100 µM
- TGI (EKVX NSCLC): 21.3 µM
- TGI (HCT-116 colon): 15.2 µM
- TGI (HCT-15 colon): > 100 µM
- TGI (HL-60(TB) leukemia): > 100 µM
- TGI (HOP-62 NSCLC): 5.21 µM
- TGI (HOP-92 NSCLC): 32.9 µM
- TGI (HS 578T breast): 92.8 µM
- TGI (HT29 colon): > 100 µM
- TGI (IGROV1 ovarian): 26.4 µM
- TGI (K-562 leukemia): 31 µM
- TGI (KM12 colon): 33.3 µM
- TGI (LOX IMVI melanoma): 31.4 µM
- TGI (M14 melanoma): 19.1 µM
- TGI (MALME-3M melanoma): 18.7 µM
- TGI (MCF7 breast): > 100 µM
- TGI (MDA-MB-231 breast): 63.3 µM
- TGI (MDA-MB-435): > 100 µM
- TGI (MDA-N): > 100 µM
- TGI (MOLT-4 leukemia): 38.9 µM
- TGI (NCI-H226 lung): 42.1 µM
- TGI (NCI-H23 lung): > 100 µM
- TGI (NCI-H460 lung): 79.2 µM
- TGI (NCI-H522 lung): 35.6 µM
- TGI (NCI/ADR-RES ovarian): 97.6 µM
- TGI (OVCAR-3 ovarian): 36.3 µM
- TGI (OVCAR-4 ovarian): 19.9 µM
- TGI (OVCAR-5 ovarian): 34.8 µM
- TGI (OVCAR-8 ovarian): 34.6 µM
- TGI (PC-3 prostate): 28 µM
- TGI (RPMI-8226 leukemia): 24.8 µM
- TGI (RXF 393 renal): 29.5 µM
- TGI (SF-268 CNS): 47.1 µM
- TGI (SF-295 CNS): 29.7 µM
- TGI (SF-539 CNS): 26.6 µM
- TGI (SK-MEL-2 melanoma): 46.3 µM
- TGI (SK-MEL-28 melanoma): 62.9 µM
- TGI (SK-MEL-5 melanoma): > 100 µM
- TGI (SK-OV-3 ovarian): 22.4 µM
- TGI (SN12C renal): > 100 µM
- TGI (SNB-19 CNS): > 100 µM
- TGI (SNB-75 CNS): 31 µM
- TGI (SW-620 colon): > 100 µM
- TGI (T-47D breast): 30.7 µM
- TGI (TK-10 renal): 12.6 µM
- TGI (U251 CNS): 18.6 µM
- TGI (UACC-257 melanoma): > 100 µM
- TGI (UACC-62 melanoma): 30.3 µM
- TGI (UO-31 renal): 43.4 µM

Structure (SMILES): O=[N+]([O-])/C=C/c1cc2ccc3ccccc3c2[nH]1
- TGI (786-0 renal): 3.07 µM
- TGI (A498 renal): 3.16 µM
- TGI (A549 NSCLC): 4.88 µM
- TGI (ACHN renal): 2.68 µM
- TGI (BT-549 breast): 4.44 µM
- TGI (CAKI-1 renal): 6.15 µM
- TGI (CCRF-CEM leukemia): 2.8 µM
- TGI (COLO 205 colon): 4.29 µM
- TGI (DU-145 prostate): 3.9 µM
- TGI (EKVX NSCLC): 5.33 µM
- TGI (HCC-2998 colon): 3.5 µM
- TGI (HCT-116 colon): 3.43 µM
- TGI (HCT-15 colon): > 23.7 µM
- TGI (HL-60(TB) leukemia): 5.29 µM
- TGI (HOP-62 NSCLC): 4.39 µM
- TGI (HOP-92 NSCLC): 3.64 µM
- TGI (HS 578T breast): 22.2 µM
- TGI (HT29 colon): 5.86 µM
- TGI (IGROV1 ovarian): 1.89 µM
- TGI (K-562 leukemia): 18.2 µM
- TGI (KM12 colon): 3.99 µM
- TGI (LOX IMVI melanoma): 2.42 µM
- TGI (M14 melanoma): 3.33 µM
- TGI (MALME-3M melanoma): 3.31 µM
- TGI (MCF7 breast): 4.29 µM
- TGI (MDA-MB-231 breast): 3.2 µM
- TGI (MDA-MB-435): 3.73 µM
- TGI (MDA-N): 4.79 µM
- TGI (MOLT-4 leukemia): > 100 µM
- TGI (NCI-H226 lung): 2.78 µM
- TGI (NCI-H23 lung): 5.07 µM
- TGI (NCI-H460 lung): 5.61 µM
- TGI (NCI-H522 lung): 2.4 µM
- TGI (NCI/ADR-RES ovarian): 6.87 µM
- TGI (OVCAR-3 ovarian): 3.11 µM
- TGI (OVCAR-4 ovarian): 4.95 µM
- TGI (OVCAR-5 ovarian): 4.55 µM
- TGI (OVCAR-8 ovarian): > 21 µM
- TGI (PC-3 prostate): 3 µM
- TGI (RPMI-8226 leukemia): 0.708 µM
- TGI (RXF 393 renal): 2.96 µM
- TGI (SF-268 CNS): 4.02 µM
- TGI (SF-295 CNS): 5.86 µM
- TGI (SF-539 CNS): 4.99 µM
- TGI (SK-MEL-2 melanoma): 2.39 µM
- TGI (SK-MEL-28 melanoma): 4.79 µM
- TGI (SK-MEL-5 melanoma): 3.26 µM
- TGI (SK-OV-3 ovarian): 17.2 µM
- TGI (SN12C renal): 3.81 µM
- TGI (SNB-19 CNS): 7.79 µM
- TGI (SNB-75 CNS): 3.87 µM
- TGI (SW-620 colon): 4.87 µM
- TGI (T-47D breast): 3.89 µM
- TGI (TK-10 renal): 3.08 µM
- TGI (U251 CNS): 2.95 µM
- TGI (UACC-257 melanoma): 6.45 µM
- TGI (UACC-62 melanoma): 3.51 µM
- TGI (UO-31 renal): 3.05 µM
